Experimental data as given in article PMC8125234, “Cardiolipin Stabilizes and Increases Catalytic Efficiency of Carnitine Palmitoyltransferase II and Its Variants S113L, P50H, and Y479F” (International Journal of Molecular Sciences, 2021).
Where a chain is given by its changes, count along the chain named. Like-named read-outs stand apart in the source and are kept apart here.

Columns and labels:
Type in all cases: biochemical
CPT II variant S113L [1] = target: T1, CPT II variant S113L (Homo sapiens, UniProt P23786, S113L); assay: Determination of inhibition constant Ki for R-amino carnitine (DTNB enzyme activity assay); conditions: 25 °C
T1 construct: made in house; host or cells: Escherichia coli BL21Gold DE
T1 sequence (P23786 26-658 S113L): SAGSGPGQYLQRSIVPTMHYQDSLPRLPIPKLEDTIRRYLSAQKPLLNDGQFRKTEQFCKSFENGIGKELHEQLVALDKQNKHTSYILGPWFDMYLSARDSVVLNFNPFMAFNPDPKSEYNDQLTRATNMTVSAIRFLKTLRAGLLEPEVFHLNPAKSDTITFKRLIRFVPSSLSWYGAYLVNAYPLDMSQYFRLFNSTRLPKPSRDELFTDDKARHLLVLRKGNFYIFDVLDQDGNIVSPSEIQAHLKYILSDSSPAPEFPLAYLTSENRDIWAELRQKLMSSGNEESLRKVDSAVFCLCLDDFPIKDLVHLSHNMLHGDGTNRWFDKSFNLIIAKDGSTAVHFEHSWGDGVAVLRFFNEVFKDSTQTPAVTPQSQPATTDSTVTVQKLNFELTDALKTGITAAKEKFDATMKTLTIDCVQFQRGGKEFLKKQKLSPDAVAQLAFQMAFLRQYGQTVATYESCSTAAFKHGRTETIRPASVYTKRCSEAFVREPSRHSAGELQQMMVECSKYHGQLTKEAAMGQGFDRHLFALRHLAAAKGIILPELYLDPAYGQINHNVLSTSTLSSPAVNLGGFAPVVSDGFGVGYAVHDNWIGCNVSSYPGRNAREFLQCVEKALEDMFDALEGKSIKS
Procedure: (§1) Before activity measurements, the storage buffer of the enzymes was replaced with assay buffer (50 mM KH2PO4, 120 mM KCl, 1 mM EDTA-Na4) using vivaspin turbo 4 tubes (Satorius Stedim biotech GmbH, Göttingen, Germany) at 4 °C. The pH of assay buffer was adjusted with KOH to 7.4. The storage buffer was diluted at least 1:500 in assay buffer. In addition, before each experimental set up, the protein samples were centrifuged at 16,000× g for 5 min at 4 °C to remove any micro-aggregates. After that, the protein concentration was determined using bicinchoninic acid (BCA) protein assay kit (Thermo Fisher Scientific GmbH, Berlin, Germany). The enzyme activity of recombinant CPT II was performed following Rufer et al. with modifications described elsewhere. […] After pre-conditioning the mixture to 25 °C for 2 min, the reaction was started by adding 15 nM of recombinant enzyme. The reverse reaction of CPT II was detected with the enzyme activity assay. CPT II catalyzed the transfer of fatty acid residue from Pal-CoA to L-carnitine with release of CoA and Pal-carnitine. The released CoA was then detected by the reaction of the free thiol group with DTNB, forming 5-mercapto-(2-nitrobenzoic acid). This compound has a molar extinction coefficient of 13,600 M^−1 cm^−1 at a wavelength of 410 nm, and its formation was followed spectroscopically. […] The slope of the progress curve was used to determine the reaction velocity.
(§2) The inhibition constant Ki for the competitive inhibitor R-amino carnitine was determined using various concentrations (R-AC, 0, 0.25 and 0.5 mM). A concentration series of L-carnitine in the enzyme assay was used (0–200 mM) while the concentration of Pal-CoA remained constant at 30 µM. Experiments were performed at least three times independently as double determination.
(§3) The values for Ki were calculated on the basis of the obtained KM values, the Michaelis–Menten constant of the inhibited reaction KMi and the inhibitor concentration using the following equation [45]:(3) KMi=(1+[I]/ Ki)KM (4) Ki=KM·[I]/KMi−KM

CPT II variant Y479F [2] = target: T2, CPT II variant Y479F (Homo sapiens, UniProt P23786, Y479F); assay: as above; conditions: 25 °C
T2 construct: made in house; host or cells: Escherichia coli BL21Gold DE
T2 sequence (P23786 26-658 Y479F): T1 sequence (P23786 26-658 S113L) with L88S, Y454F
Procedure: as §1, §2, §3

CPT II WT [3] = target: T3, CPT II WT (Homo sapiens, UniProt P23786); assay: as above; conditions: 25 °C
T3 construct: made in house; host or cells: Escherichia coli BL21Gold DE
T3 sequence (P23786 26-658): T1 sequence (P23786 26-658 S113L) with L88S
Procedure: as §1, §2, §3

CPT II variant P50H [4] = target: T4, CPT II variant P50H (Homo sapiens, UniProt P23786, P50H); assay: as above; conditions: 25 °C
T4 construct: made in house; host or cells: Escherichia coli BL21Gold DE
T4 sequence (P23786 26-658 P50H): T1 sequence (P23786 26-658 S113L) with P25H, L88S
Procedure: as §1, §2, §3

CPT II variant S113L [5] = target: T1, CPT II variant S113L; assay: Determination of the kinetic parameters kcat and KM; conditions: palmitoyl-CoA varied, 25 °C
Procedure: as §1
(§4) It is assumed that the reaction catalyzed by CPT II represents a ping-pong mechanism or compulsory order ternary-complex mechanism.
(§5) The kinetic parameters were determined by evaluating the obtained v/S characteristic according to the Michaelis–Menten Equation (1). The […] kcat was calculated using Equation (2):(1) v=Vmax∗[S]/KM+[S] (2) kcat=Vmax/cenzyme

CPT II variant Y479F [6] = target: T2, CPT II variant Y479F; assay: as above; conditions: palmitoyl-CoA varied, 25 °C
Procedure: as §1, §4, §5

CPT II WT [7] = target: T3, CPT II WT; assay: as above; conditions: palmitoyl-CoA varied, 25 °C
Procedure: as §1, §4, §5

CPT II variant P50H [8] = target: T4, CPT II variant P50H; assay: as above; conditions: palmitoyl-CoA varied, 25 °C
Procedure: as §1, §4, §5

[9] = 0.25 mM CL, read-out: Inhibition Constant Ki in Presence of CL
[10] = absence of CL, read-out: Inhibition Constant Ki in Absence of CL

C[N+](C)(C)C[C@H](N)CC(=O)[O-] [R-amino carnitine, R-Aminocarnitine]
Ki (CPT II variant S113L [1]; [9]): 36 ± 16 µM
Ki (CPT II variant S113L [1]; [10]): 173 ± 20 µM
Ki (CPT II variant Y479F [2]; [9]): 108 ± 39 µM
Ki (CPT II variant Y479F [2]; [10]): 756 ± 62 µM
Ki (CPT II WT [3]; [9]): 105 ± 2 µM
Ki (CPT II WT [3]; [10]): 493 ± 4 µM
Ki (CPT II variant P50H [4]; [9]): 46 ± 6 µM
Ki (CPT II variant P50H [4]; [10]): 134 ± 11 µM

CCCCCCCCCCCCCCCC(=O)SCCNC(=O)CCNC(=O)[C@H](O)C(C)(C)COP(=O)(O)OP(=O)(O)OC[C@H]1O[C@@H](n2cnc3c(N)ncnc32)[C@H](O)[C@@H]1OP(=O)(O)O [palmitoyl-CoA, Palmitoyl-Coenzyme A]
Km (CPT II variant S113L [5]; 0.25 mM CL): 12.3 ± 3 µM
kcat (CPT II variant S113L [5]; 0.25 mM CL): 145.8 ± 0.9 s⁻¹
Km (CPT II variant S113L [5]; absence of CL): 11 ± 3.6 µM
kcat (CPT II variant S113L [5]; absence of CL): 142.1 ± 25 s⁻¹
Km (CPT II variant Y479F [6]; 0.25 mM CL): 6.7 ± 0.3 µM
kcat (CPT II variant Y479F [6]; 0.25 mM CL): 144.8 ± 13 s⁻¹
Km (CPT II variant Y479F [6]; absence of CL): 5.1 ± 2.3 µM
kcat (CPT II variant Y479F [6]; absence of CL): 141.4 ± 1.7 s⁻¹
Km (CPT II WT [7]; 0.25 mM CL): 6.7 ± 1.1 µM
kcat (CPT II WT [7]; 0.25 mM CL): 145.3 ± 9.0 s⁻¹
Km (CPT II WT [7]; absence of CL): 7.1 ± 1.1 µM
kcat (CPT II WT [7]; absence of CL): 144.7 ± 3.1 s⁻¹
Km (CPT II variant P50H [8]; 0.25 mM CL): 6.7 ± 1.8 µM
kcat (CPT II variant P50H [8]; 0.25 mM CL): 138.2 ± 8.4 s⁻¹
Km (CPT II variant P50H [8]; absence of CL): 5.5 ± 1.4 µM
kcat (CPT II variant P50H [8]; absence of CL): 144.3 ± 18 s⁻¹
